One assay deals with B. catarrhalis M3. As to the kind of experiment: Minimum inhibitory concentration (MIC), liquid dilution test. It is filed as cell-based. The following applies: Moraxella catarrhalis, minimal medium with 0.4% BH broth, 37° C., 18-24 h. How it is done:
(§1) Determination of the Minimum Inhibitory Concentration (MIC):
(§2) The minimum inhibitory concentration (MIC) is the minimum concentration of an antibiotic with which the growth of a test microbe is inhibited over 18-24 h. The inhibitor concentration can in these cases be determined by standard microbiological methods (see, for example, The National Committee for Clinical Laboratory Standards. Methods for dilution antimicrobial susceptibility tests for bacteria that grow aerobically; approved standard-fifth edition. NCCLS document M7-A5 [ISBN 1-56238-394-9]. NCCLS, 940 West Valley Road, Suite 1400, Wayne, Pa. 19087-1898 USA, 2000). The MIC of the compounds of the invention is determined in the liquid dilution test on the 96-well microtiter plate scale. The bacterial microbes are cultivated in a minimal medium (18.5 mM Na2HPO4, 5.7 mM KH2PO4, 9.3 mM NH4Cl, 2.8 mM MgSO4, 17.1 mM NaCl, 0.033 μg/ml thiamine hydrochloride, 1.2 μg/ml nicotinic acid, 0.003 μg/ml biotin, 1% glucose, 25 μg/ml of each proteinogenic amino acid with the exception of phenylalanine; [H.-P. Kroll; unpublished]) with addition of 0.4% BH broth (test medium). In the case of Enterococcus faecalis ICB 27159, heat-inactivated fetal calf serum (FCS; GibcoBRL, Germany) is added to the test medium in a final concentration of 10%. Overnight cultures of the test microbes are diluted to an OD578 of 0.001 (to 0.01 in the case of Enterococci) in fresh test medium, and incubated 1:1 with dilutions of the test substances (1:2 dilution steps) in test medium (150 μl final volume). The cultures are incubated at 37° C. for 18-24 hours; Enterococci in the presence of 5% CO2.
(§3) The lowest substance concentration in each case at which bacterial growth was no longer visible is defined as the MIC. […] The compounds show a graded antibacterial effect against most of the test microbes.

Assay [1] has as its system Enterococcus faecalis ICB 27159. The assay is described as above. The class given is cell-based. The following applies: ICB27159, test medium with 10% FCS, 5% CO2, 37° C., 18-24 h, read-out: MIC E. faecalis ICB27159. How it is done:
as §1, §2, §3

The subject of assay [2] is S. aureus 133. The assay is described as above. The class given is cell-based. The method, then: as §1, §2, §3
Another assay concerns S. aureus 25701. The assay is described as above. It is filed as cell-based. The following applies: Staphylococcus aureus, minimal medium with 0.4% BH broth, 37° C., 18-24 h. How it is done:
as §1, §2, §3

The next assay concerns S. aureus RN4220. Described as above. The class given is cell-based. The following applies: Staphylococcus aureus, minimal medium with 0.4% BH broth, 37° C., 18-24 h. How it is done:
as §1, §2, §3

Assay [3] deals with translation of firefly luciferase, Escherichia coli MRE 600 S30 extract. As to the kind of experiment: In vitro transcription-translation with E. coli extracts. It is filed as biochemical. The following applies: plasmid pBESTLuc, 30° C., 60 min, luciferase luminescence, read-out: IC50 E. coli MRE600 Translation. The method, then: In vitro Transcription-translation with E. coli Extracts
An S30 extract is prepared by harvesting logarithmically growing Escherichia coli MRE 600 (M. Müller; University Freiburg), washing and employing them as described for the in vitro transcription-translation assay (Müller, M. and Blobel, G. Proc Natl Acad Sci USA (1984) 81, pp. 7421-7425).
1 μl of cAMP (11.25 mg/ml) are additionally added per 50 μl of reaction mix to the reaction mix for the in vitro transcription-translation assay. The assay mixture amounts to 105 μl, with 5 μl of the substance to be tested being introduced in 5% strength DMSO. 1 μg/100 μl of mixture of the plasmid pBESTLuc (Promega, Germany) are used as transcription template. After incubation at 30° C. for 60 min, 50 μl of luciferin solution (20 mM tricine, 2.67 mM MgSO4, 0.1 mM EDTA, 33.3 mM DTT pH 7.8, 270 μM CoA, 470 μM luciferin, 530 μM ATP) are added, and the resulting bioluminescence is measured in a luminometer for 1 minute. The IC50 is indicated by the concentration of an inhibitor which leads to 50% inhibition of the translation of firefly luciferase.

In assay [4] the target is translation of firefly luciferase, S. aureus 133 S30 extract. As to the kind of experiment: In vitro transcription-translation with S. aureus extracts. The following applies: reporter plasmid pla, 30° C., 60 min, luciferase luminescence. It is filed as biochemical. From the text:
(§4) In vitro Transcription-translation with S. aureus Extracts
(§5) Construction of an S. aureus Luciferase Reporter Plasmid
(§6) A reporter plasmid which can be used in an in vitro transcription-translation assay for S. aureus is constructed by using the plasmid pBESTluc (Promega Corporation, USA). The E. coli tac promoter present in this plasmid in front of the firefly luciferase is replaced by the capAl promoter with appropriate Shine-Dalgarno sequence from S. aureus. The primers CAPFor 5′-[…] […]-3′ and CAPRev 5′-[…]-3′ are used for this. The primer CAPFor contains the capAl promoter, the ribosome binding site and the 5′ region of the luciferase gene. After PCR using pBESTluc as template it is possible to isolate a PCR product which contains the firefly luciferase gene with the fused capAl promoter. This is, after restriction with Clal and HindIII, ligated into the vector pBESTluc which has likewise been digested with ClaI and HindIII. The resulting plasmid pla is able to replicate in E. coli and be used as template in the S. aureus in vitro transcription-translation assay.
(§7) Preparation of S30 Extracts from S. aureus
(§8) Six liters of BHI medium are inoculated with a 250 ml overnight culture of an S. aureus strain and allowed to grow at 37° C. until the OD600 nm is 2-4. The cells are harvested by centrifugation and washed in 500 ml of cold buffer A (10 mM Tris acetate, pH 8.0, 14 mM Mg acetate, 1 mM DTT, 1 M KCl). After renewed centrifugation, the cells are washed in 250 ml of cold buffer A with 50 mM KCl, and the resulting pellets are frozen at −20° C. for 60 min. The pellets are thawed on ice in 30 to 60 min and taken up to a total volume of 99 ml in buffer B (10 mM Tris acetate, pH 8.0, 20 mM Mg acetate, 1 mM DTT, 50 mM KCl). 1.5 ml portions of lysostaphin (0.8 mg/ml) in buffer B are introduced into 3 precooled centrifuge cups and each mixed with 33 ml of the cell suspension. The samples are incubated at 37° C., shaking occasionally, for 45 to 60 min, before 150 μl of a 0.5 M DTT solution are added. The lyzed cells are centrifuged at 30 000×g and 4° C. for 30 min. The cell pellet is taken up in buffer B and then centrifuged again under the same conditions, and the collected supernatants are combined. The supernatants are centrifuged again under the same conditions, and 0.25 volume of buffer C (670 mM Tris acetate, pH 8.0, 20 mM Mg acetate, 7 mM Na3 phosphenolpyruvate, 7 mM DTT, 5.5 mM ATP, 70 μM amino acids (complete from Promega), 75 μg of pyruvate kinase (Sigma, Germany)/ml are added to the upper 2/3 of the supernatant. The samples are incubated at 37° C. for 30 min. The supernatants are dialyzed against 2 l of dialysis buffer (10 mM Tris acetate, pH 8.0, 14 mM Mg acetate, 1 mM DTT, 60 mM K acetate) in a dialysis tube with a 3500 Da cut-off with one buffer change at 4° C. overnight. The dialysate is concentrated to a protein concentration of about 10 mg/ml by covering the dialysis tube with cold PEG 8000 powder (Sigma, Germany) at 4° C. The S30 extracts can be stored in aliquots at −70° C.
(§9) Determination of the IC50 in the S. aureus in vitro Transcription-translation Assay
(§10) Inhibition of protein biosynthesis of the compounds can be shown in an in vitro transcription-translation assay. The assay is based on the cell-free transcription and translation of firefly luciferase using the reporter plasmid pla as template and cell-free S30 extracts obtained from S. aureus. The activity of the resulting luciferase can be detected by luminescence measurement. […]

The target of assay [5] is translation of firefly luciferase, S. aureus RN4220 S30 extract. Described as above. The class given is biochemical. The following applies: reporter plasmid pla, 30° C., 60 min, luciferase luminescence.
Description: as §4, §5, §6, §7, §8, §9, §10

The subject of assay [6] is S. aureus 133. As to the kind of experiment: Systemic infection with S. aureus 133 (mouse sepsis model). The class given is in vivo. The following applies: female CFW1 mice, i.p. infection, i.v. therapy 30 minutes after infection, survival recorded for 6 days. How it is done:
Systemic Infection with S. aureus 133
The suitability of the compounds of the invention for treating bacterial infections can be shown in various animal models. For this purpose, the animals are generally infected with a suitable virulent microbe and then treated with the compound to be tested, which is in a formulation which is adopted to the particular therapy model.
For this purpose, S. aureus 133 cells are cultured overnight in BH broth (Oxoid, Germany). The overnight culture is diluted 1:100 in fresh BH broth and expanded for 3 hours. The bacteria which are in the logarithmic phase of growth are centrifuged and washed 2× with buffered physiological saline solution. A cell suspension in saline solution with an extinction of 50 units is then adjusted in a photometer (Dr. Lange LP 2W). After a dilution step (1:15), this suspension is mixed 1:1 with a 10% strength mucine suspension. 0.2 ml of this infection solution is administered i.p. per 20 g of mouse. This corresponds to a cell count of about 1-2×10E6 microbes/mouse. The i.v. therapy takes place 30 minutes after the infection. Female CFW1 mice are used for the infection test. The survival of the animals is recorded for 6 days. The animal model is adjusted so that untreated animals die within 24 h after the infection.

[7] abbreviates: Staphylococcus aureus, 133, read-out: MIC S. aureus 133.

Each structure is given as a SMILES string. Values after ≈ are worked out from the molar mass of the structure shown. Counter-ions that a name gives are not always drawn. Like-named read-outs stand apart in the source and are kept apart here.

As for `NC[C@H](O)C[C@@H]1NC(=O)[C@@H](N)Cc2cc(ccc2O)-c2ccc(O)c(c2)C[C@@H](C(N)=O)NC1=O` [Example 1, (8S,11S,14S)-14-Amino-11-[(2R)-3-amino-2-hydroxypropyl]-5,17-dihydroxy-10,13-dioxo-9,12-diazatricyclo[14.3.1.1^2,6]henicosa-1(20),2(21),3,5,16,18-hexaene-8-carboxamide dihydrochloride], the MIC with B. catarrhalis M3 amounted to 1.56 µM; in [1], 6.25 µM; in the assay on S. aureus 133 [2] (setting [7]), 0.2 µM; with S. aureus 25701 it was 6.25 µM; with S. aureus RN4220, 0.1 µM. In addition, the IC50 in [3] came to 150 nM; in assay [4] it was 900 nM; in assay [5], 500 nM.

As to `NC[C@H](O)C[C@@H]1NC(=O)[C@@H](N)Cc2cc(ccc2O)-c2ccc(O)c(c2)C[C@@H](C(=O)NCc2ccccc2)NC1=O` [Example 2, (8S,11S,14S)-14-Amino-11-[(2R)-3-amino-2-hydroxypropyl]-N-benzyl-5,17-dihydroxy-10,13-dioxo-9,12-diazatricyclo[14.3.1.1^2,6]henicosa-1(20),2(21),3,5,16,18-hexaene-8-carboxamide dihydrochloride], the MIC against B. catarrhalis M3 amounted to 25 µM; in [1] it was 25 µM; in the assay on S. aureus 133 [2] (setting [7]), 25 µM; against S. aureus 25701 it was 50 µM; with S. aureus RN4220 it was 12.5 µM. Also, the IC50 in assay [3] was 550 nM; in [4] it was 1300 to 4500 nM; in assay [5], 3400 nM. For the same compound, the “therapeutic effect ED100” value in the assay on S. aureus 133 [6] amounted to 1.25 mg/kg.

In the case of `NC[C@H](O)C[C@@H]1NC(=O)[C@@H](N)Cc2cc(ccc2O)-c2ccc(O)c(c2)C[C@@H](C(=O)NCC(N)=O)NC1=O` [Example 37], the MIC in the assay on S. aureus 133 [2] (Staphylococcus aureus, 133, minimal medium with 0.4% BH broth, 37° C., 18-24 h, read-out: MIC S. aureus 133) worked out at 0.8 µM (≈ 0.423 µg/mL). In addition, in assay [4], 500 nM corresponded to half-maximal inhibition (IC50).

One may read the MIC as the smallest concentration in the dilution series that meets the test's criterion for growth inhibition. A word on the IC50: it is the concentration that gives 50% inhibition.

Source of the values: patent US20070129288A1, “Antibacterial amide macrocycles” (BAYER HEALTHCARE AG, priority 2002, published 2007).
